The source made the active and inactive calls. No cut-off for these calls is given here.
Experiments:
[1] = system: Mus musculus; assay: Antinociceptive activity in sc dosed mouse by tail flick method; type: functional
[2] = system: Mus musculus; assay: Antinociceptive activity in sc dosed mouse by hot plate method; type: functional
[3] = system: Mus musculus; assay: Antinociceptive activity in sc dosed mouse by phenylquinone antiwrithing assay; type: functional
[4] = Displacement of [3H]etorphine from opioid receptor in rat cerebrum
[5] = system: Mus musculus; assay: Antinociceptive activity in sc dosed mouse assessed as inhibition of morphin response by tail flick assay; type: functional
[6] = Displacement of 3.0 nM [3H]etorphine from opioid receptor in rat cerebrum
[7] = biological target: Mu-type opioid receptor (Mus musculus, UniProt P42866); assay: Agonist activity at mu opioid receptor in Swiss mouse vas deferens assessed as inhibition of electrically-stimulated twitch; type: functional, tissue-based
Sequence of Mu-type opioid receptor (P42866 whole entry): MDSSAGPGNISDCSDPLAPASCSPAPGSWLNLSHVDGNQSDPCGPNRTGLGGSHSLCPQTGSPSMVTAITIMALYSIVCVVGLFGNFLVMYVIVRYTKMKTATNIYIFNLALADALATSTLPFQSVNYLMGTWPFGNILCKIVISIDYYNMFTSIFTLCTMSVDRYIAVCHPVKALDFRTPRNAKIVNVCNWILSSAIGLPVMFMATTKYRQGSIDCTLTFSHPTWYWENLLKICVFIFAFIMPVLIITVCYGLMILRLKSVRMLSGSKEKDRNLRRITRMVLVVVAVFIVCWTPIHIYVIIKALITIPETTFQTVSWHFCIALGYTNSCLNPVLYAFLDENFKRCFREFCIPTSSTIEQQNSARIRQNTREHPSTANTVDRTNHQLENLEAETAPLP

With `C=CCN1CC[C@]23c4c5ccc(O)c4O[C@H]2C(=O)CC[C@@]3(O)[C@H]1C5` [NALOXONE] the Activity [1] was “inactive”, the Activity [2] was “inactive” and the Activity [3] was “inactive”. For the same compound, the EC50 [4] was 0.00626 µM, the ED50 [5] was 0.03 mg/kg and the EC50 [6] was 0.0091 µM.

Compound `CN1CC[C@]23c4c5ccc(O)c4O[C@H]2[C@@H](O)C=C[C@H]3[C@H]1C5` [MORPHINE] has an ED50 [5] of 2.6 mg/kg.

In the case of `C[C@H]1C2Cc3ccc(O)cc3[C@@]1(C)CCN2CCC(=O)O`, the Activity [1] is reported as “inactive”, the Activity [2] is reported as “inactive” and the ED50 [3] is reported as 11.4 mg/kg. The EC50 [4] was > 6 µM and the Activity [5] was “inactive”.

In the case of `C[C@H]1C2Cc3ccc(O)cc3[C@@]1(C)CCN2CC(=O)O`, the Activity [1] is reported as “inactive”, the Activity [2] is reported as “inactive” and the EC50 [7] is reported as 9.79 µM. For the same compound, the Activity [3] was “inactive”, the EC50 [4] was > 6 µM and the Activity [5] was “inactive”.

With `C[C@H]1C2Cc3ccc(O)cc3[C@@]1(C)CCN2CCCC(=O)O` the Activity [1] was “inactive”, the Activity [2] was “inactive” and the ED50 [3] was 1.4 mg/kg. For the same compound, the EC50 [4] was > 6 µM and the Activity [5] was “inactive”.

Work on `COc1ccc2c3c1O[C@H]1[C@@H](O)C=C[C@H]4[C@@H](C2)N(C)CC[C@@]341` [CODEINE] yielded an EC50 [6] of 34.7 µM.

With `C=CCN1CC[C@]23c4c5ccc(O)c4O[C@H]2[C@@H](O)C=C[C@H]3[C@H]1C5` [NALORPHINE] the Activity [1] was “inactive”, the ED50 [3] was 0.6 mg/kg and the EC50 [4] was 0.02 µM. The ED50 [5] was 2.6 mg/kg.

With `O=C1CC[C@@]2(O)[C@H]3Cc4ccc(O)c5c4[C@@]2(CCN3CC2CC2)[C@H]1O5` [NALTREXONE] the Activity [1] was “inactive”, the Activity [2] was “inactive” and the Activity [3] was “inactive”. It also gave an EC50 [4] of 0.00063 µM, an ED50 [5] of 0.007 mg/kg and an EC50 [6] of 0.002 µM.

With `CCOC(=O)CCN1CC[C@]2(C)c3cc(O)ccc3CC1[C@@H]2C` the Activity [1] was “inactive”, the Activity [2] was “inactive” and the Activity [3] was “inactive”. For the same compound, the Activity [5] was “inactive”.

With `CCOC(=O)CN1CC[C@]2(C)c3cc(O)ccc3CC1[C@@H]2C` the Activity [1] was “inactive”, the Activity [2] was “inactive” and the Activity [3] was “inactive”. The EC50 [4] was 2.08 µM and the Activity [5] was “inactive”.

Work on `C[C@H]1[C@@H]2Cc3ccc(O)cc3[C@]1(C)CCN2C` [METAZOCINE] yielded an ED50 [1] of 0.81 mg/kg, an ED50 [2] of 0.62 mg/kg and an ED50 [3] of 0.3 mg/kg. For the same compound, the Activity [5] was “inactive”.

In the case of `CCOC(=O)CCCN1CC[C@]2(C)c3cc(O)ccc3CC1[C@@H]2C`, the Activity [1] is reported as “inactive”, the Activity [2] is reported as “inactive” and the EC50 [7] is reported as 17.9 µM. For the same compound, the ED50 [3] was 7.1 mg/kg, the EC50 [4] was 1.02 µM and the Activity [5] was “inactive”.

— ChEMBL document CHEMBL1143143, “The influence of esters and carboxylic acids as the N-substituent of opioids. Part 1: Benzomorphans” (Bioorg Med Chem, 2008)
